Results: ChEMBL document CHEMBL1201862, “PubChem BioAssay data set” (2004)
Calls of active or inactive are those of the source.

Tests used:
[1] = molecular target: UDP-galactopyranose mutase (Mycobacterium tuberculosis, UniProt P9WIQ1); experiment: Inhibitors of Mycobacterium tuberculosis UDP-galactopyranose mutase (UGM) enzyme Measured in Biochemical System Using Plate Reader - 2105-02_Inhibitor_Dose_CherryPick_Activity. [Related pubchem assays (depositor defined):AID504439]
ORF 73 = ORF 73 (Human herpesvirus 8, UniProt O40947); experiment: KSHV LANA DNA-binding disruption – biochemical, fluorescence polarization, cherry-picked samples, dose response (AID 504725); parameters: species or system Human gammaherpesvirus 8;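 further: fluorescence polarization of a labeled DNA duplex reporting LANA DNA binding; potency is for inhibitors that block LANA binding to the DNA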
ORF 73, sequence (O40947 whole entry): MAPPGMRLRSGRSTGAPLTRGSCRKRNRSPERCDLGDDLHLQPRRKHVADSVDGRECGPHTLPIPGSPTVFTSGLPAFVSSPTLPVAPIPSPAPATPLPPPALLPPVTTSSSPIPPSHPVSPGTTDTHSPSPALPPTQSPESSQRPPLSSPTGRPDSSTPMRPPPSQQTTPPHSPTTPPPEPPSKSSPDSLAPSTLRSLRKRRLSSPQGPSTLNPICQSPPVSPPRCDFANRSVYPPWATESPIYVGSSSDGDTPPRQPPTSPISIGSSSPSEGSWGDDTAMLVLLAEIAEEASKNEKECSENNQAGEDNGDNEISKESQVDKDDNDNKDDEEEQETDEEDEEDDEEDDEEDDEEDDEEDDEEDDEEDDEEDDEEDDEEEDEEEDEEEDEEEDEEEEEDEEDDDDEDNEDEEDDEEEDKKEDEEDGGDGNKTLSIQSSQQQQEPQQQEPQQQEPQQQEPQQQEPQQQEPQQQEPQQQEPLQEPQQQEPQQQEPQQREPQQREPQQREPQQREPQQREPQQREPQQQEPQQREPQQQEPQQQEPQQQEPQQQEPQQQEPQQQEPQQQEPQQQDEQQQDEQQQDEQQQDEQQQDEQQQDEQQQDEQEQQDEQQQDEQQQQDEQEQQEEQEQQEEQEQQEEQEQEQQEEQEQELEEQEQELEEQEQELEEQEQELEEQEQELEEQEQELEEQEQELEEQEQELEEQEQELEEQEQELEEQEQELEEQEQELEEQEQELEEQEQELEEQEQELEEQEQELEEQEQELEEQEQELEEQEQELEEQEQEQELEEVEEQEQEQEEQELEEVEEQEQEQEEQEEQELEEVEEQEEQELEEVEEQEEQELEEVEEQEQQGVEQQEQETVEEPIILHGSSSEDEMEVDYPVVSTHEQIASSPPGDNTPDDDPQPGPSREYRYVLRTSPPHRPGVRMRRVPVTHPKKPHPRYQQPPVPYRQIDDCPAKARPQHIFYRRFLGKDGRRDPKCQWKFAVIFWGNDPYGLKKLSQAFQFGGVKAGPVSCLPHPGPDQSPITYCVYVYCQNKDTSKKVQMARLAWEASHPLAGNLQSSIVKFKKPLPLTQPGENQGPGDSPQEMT

[2] = fluconazole-exposed Candida albicans growth modulators – fluorescence, retest, confirmation (AID 2467); format: functional, cell-based
[3] = molecular target: T1, Serine/threonine-protein phosphatase (Candida dubliniensis (strain CD36 / CBS 7987 / NCPF 3949 / NRRLY-17841) (Yeast), UniProt B9W6M3); experiment: blockers of CaCl2-induced CDRE-lacZ signaling – S. cerevisiae, luminescence, secondary, dose response (AID 2388); format: functional, cell-based;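 further: yeast reporter cells carrying a calcineurin-responsive lacZ construct stimulated with calcium chloride; luminescent beta-galactosidase reporter signal in whole cells rather than isolated phosphatase activity; potency for inhibition where a drop in reporter signal means calcineurin blockade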
T1 sequence (B9W6M3 whole entry): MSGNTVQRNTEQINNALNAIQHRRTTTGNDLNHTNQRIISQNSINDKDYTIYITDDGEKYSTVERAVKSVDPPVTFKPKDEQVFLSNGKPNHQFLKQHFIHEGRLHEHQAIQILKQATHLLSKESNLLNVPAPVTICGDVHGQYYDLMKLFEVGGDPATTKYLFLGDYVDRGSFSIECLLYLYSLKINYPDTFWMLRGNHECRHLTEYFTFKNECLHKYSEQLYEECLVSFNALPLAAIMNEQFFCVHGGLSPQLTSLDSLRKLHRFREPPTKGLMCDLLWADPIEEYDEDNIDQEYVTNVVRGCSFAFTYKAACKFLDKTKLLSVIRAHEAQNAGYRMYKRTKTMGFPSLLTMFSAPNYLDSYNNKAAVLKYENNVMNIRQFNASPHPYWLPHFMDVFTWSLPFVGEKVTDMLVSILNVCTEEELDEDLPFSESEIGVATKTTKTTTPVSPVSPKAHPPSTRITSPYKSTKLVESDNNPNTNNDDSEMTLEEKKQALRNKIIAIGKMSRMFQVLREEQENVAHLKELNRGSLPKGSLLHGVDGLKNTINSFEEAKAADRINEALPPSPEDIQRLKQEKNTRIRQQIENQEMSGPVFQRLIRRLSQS

[4] = NIH-3T3 fibroblast cytotoxicity, dose response, cytotoxicity control, cell-based, fluorescence, Alamar Blue, secondary assay (AID 2327); format: functional;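 further: NIH-3T3 mouse fibroblasts cultured with fluconazole at 8 µg/mL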
[5] = molecular target: ATP-dependent molecular chaperone HSP82 (Candida albicans (strain WO-1) (Yeast), UniProt C4YTQ8); experiment: steroid-induced GRE reporter decrease in yeast – S. cerevisiae, luminescence, Hsp90 inhibitor project, dose response (AID 2400); format: functional, cell-based;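 further: beta-galactosidase luminescence from glucocorticoid response element reporter as proxy for Hsp90 function; inhibitor potency where signal loss means Hsp90 inhibition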
ATP-dependent molecular chaperone HSP82, sequence (C4YTQ8 whole entry): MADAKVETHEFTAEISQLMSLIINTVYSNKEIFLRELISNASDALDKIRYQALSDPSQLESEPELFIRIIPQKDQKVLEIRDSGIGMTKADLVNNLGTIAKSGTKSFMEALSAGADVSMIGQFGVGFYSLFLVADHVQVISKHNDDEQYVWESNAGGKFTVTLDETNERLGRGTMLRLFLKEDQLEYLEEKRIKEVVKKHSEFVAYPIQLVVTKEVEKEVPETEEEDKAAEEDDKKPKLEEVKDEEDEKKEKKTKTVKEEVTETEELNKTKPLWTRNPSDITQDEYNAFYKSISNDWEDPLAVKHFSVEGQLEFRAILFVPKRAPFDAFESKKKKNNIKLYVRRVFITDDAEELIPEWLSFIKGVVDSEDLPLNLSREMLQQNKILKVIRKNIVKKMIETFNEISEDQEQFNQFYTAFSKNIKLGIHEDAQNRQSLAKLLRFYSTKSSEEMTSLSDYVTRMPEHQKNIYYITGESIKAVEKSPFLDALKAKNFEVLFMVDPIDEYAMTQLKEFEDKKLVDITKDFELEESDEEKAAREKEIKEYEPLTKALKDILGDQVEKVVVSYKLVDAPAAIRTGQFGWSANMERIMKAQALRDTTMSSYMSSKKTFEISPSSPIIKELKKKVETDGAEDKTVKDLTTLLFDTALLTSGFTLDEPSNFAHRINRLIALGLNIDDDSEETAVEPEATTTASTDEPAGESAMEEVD

[6] = HEK-293T viability loss, compound-treated – cell-based, uHTS hits, cytotoxicity control for B/T-cell NF-kB inhibitor project, dose response (AID 489019); format: functional;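 further: IC50 reflects cytotoxicity as loss of cell viability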
[7] = molecular target: T2, COUP transcription factor 2 (Homo sapiens, UniProt P24468); experiment: Luminescence-based cell-based high throughput dose response assay to identify inhibitors of COUP-TFII (NR2F2).; format: functional;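 further: HEK293 cells transiently cotransfected with COUP-TFII expression vector and reporter; luciferase reporter luminescence driven by COUP-TFII from the pX2-168 reporter plasmid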
T2 sequence (P24468 whole entry): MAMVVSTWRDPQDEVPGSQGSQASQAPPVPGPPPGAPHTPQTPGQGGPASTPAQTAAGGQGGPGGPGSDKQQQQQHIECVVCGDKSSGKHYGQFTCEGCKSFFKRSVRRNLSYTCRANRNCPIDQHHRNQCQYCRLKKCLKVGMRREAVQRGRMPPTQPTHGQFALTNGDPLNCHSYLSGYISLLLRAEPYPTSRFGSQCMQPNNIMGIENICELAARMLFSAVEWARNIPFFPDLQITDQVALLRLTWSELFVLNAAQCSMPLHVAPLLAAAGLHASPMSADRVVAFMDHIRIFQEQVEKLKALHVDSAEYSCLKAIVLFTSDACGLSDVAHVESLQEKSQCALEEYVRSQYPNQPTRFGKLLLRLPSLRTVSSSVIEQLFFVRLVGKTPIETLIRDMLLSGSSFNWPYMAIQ

Jurkat [8] = experiment: blockers of NF-kB activation in T cells – Jurkat, luciferase reporter, luminescence, B- and T-cell, dose response (AID 489004); format: functional, cell-based; conditions: Homo sapiens;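 further: NF-kB luciferase reporter Jurkat cells stimulated with PMA plus ionomycin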
[9] = molecular target: T3, Heat shock factor protein 1 (Mus musculus, UniProt P38532); experiment: decrease of HSF1-responsive luciferase luminescence – cell-based, NIH3T3, dose retest, confirmation (AID 2382); format: functional;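 further: NIH3T3 fibroblasts with HSF1-driven luciferase reporter stressed by proteasome inhibitor MG132; luminescence from HSF1-driven luciferase expression after 8 hours of MG132 stress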
T3 sequence (P38532 whole entry): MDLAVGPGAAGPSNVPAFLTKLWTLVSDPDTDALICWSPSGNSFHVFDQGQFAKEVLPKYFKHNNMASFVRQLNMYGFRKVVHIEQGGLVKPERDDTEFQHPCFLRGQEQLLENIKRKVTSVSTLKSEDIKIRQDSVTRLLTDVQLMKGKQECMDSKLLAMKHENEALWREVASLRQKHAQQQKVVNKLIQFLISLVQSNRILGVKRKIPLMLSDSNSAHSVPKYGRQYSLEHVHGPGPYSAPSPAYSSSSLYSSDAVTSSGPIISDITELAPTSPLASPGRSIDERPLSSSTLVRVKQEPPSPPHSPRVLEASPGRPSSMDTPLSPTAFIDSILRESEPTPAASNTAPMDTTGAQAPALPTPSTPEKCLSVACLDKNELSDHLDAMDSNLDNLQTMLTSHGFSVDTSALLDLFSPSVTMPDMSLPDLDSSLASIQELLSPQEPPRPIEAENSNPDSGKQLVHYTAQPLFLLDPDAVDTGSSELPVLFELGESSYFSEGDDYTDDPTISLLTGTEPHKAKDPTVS

[10] = alpha-synuclein stem-loop luciferase translation blockers – H4 neuroglioma cells, luminescence, confirmation (AID 1988); format: functional, cell-based
[11] = luciferase reporter signal suppression in cells – H4 neuroglioma cells, luminescence, dose response (AID 1990); format: functional, cell-based
[12] = Luminescence Cell-Based Dose Response HTS to Identify Inhibitors of 5'UTR Stem-Loop Driven Prion Protein mRNA Translation in H4 Neuroglioblastoma Cells. [Related pubchem assays: 1827 (Project Summary), 1813 (Primary HTS)]; format: functional
CAAX prenyl protease 1 = CAAX prenyl protease 1 (Saccharomyces cerevisiae S288c, UniProt P47154); experiment: yeast CAAX protease Ste24 inhibition – biochemical, S. cerevisiae, plate reader, cherry-pick, dose response (AID 488815)
CAAX prenyl protease 1, sequence (P47154 whole entry): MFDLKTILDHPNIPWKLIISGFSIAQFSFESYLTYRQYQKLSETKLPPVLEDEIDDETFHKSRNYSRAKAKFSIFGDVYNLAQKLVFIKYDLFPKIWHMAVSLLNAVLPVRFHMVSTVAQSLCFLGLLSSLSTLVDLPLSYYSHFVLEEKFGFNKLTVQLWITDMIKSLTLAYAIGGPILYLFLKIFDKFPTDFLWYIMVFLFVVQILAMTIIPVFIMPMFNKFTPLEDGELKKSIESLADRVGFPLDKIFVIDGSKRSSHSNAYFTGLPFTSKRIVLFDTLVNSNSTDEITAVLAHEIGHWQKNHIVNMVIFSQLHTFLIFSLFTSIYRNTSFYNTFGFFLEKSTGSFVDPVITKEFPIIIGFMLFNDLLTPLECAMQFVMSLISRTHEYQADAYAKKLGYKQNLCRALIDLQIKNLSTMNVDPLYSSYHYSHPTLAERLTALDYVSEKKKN

CAAX prenyl protease 2 [13] = molecular target: CAAX prenyl protease 2 (Saccharomyces cerevisiae S288c, UniProt Q03530); format: biochemical
CAAX prenyl protease 2 (Saccharomyces cerevisiae S288c, UniProt Q03530), sequence (Q03530 whole entry): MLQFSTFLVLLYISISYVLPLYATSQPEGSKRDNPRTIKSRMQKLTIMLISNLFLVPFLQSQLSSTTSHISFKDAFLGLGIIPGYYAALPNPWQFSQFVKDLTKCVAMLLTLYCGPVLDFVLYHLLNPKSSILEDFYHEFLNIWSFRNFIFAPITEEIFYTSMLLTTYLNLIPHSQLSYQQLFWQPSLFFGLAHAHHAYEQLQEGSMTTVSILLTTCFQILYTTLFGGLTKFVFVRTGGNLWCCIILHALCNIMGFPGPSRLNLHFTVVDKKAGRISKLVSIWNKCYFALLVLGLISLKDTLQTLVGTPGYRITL

CAAX prenyl protease 2 [14] = molecular target: T4, CAAX prenyl protease 2 (Homo sapiens, UniProt Q9Y256); experiment: inhibition of Ras-converting CAAX protease Rce1 – biochemical, yeast membranes, quenched-peptide fluorescence, cherry-pick, dose response (AID 588849)
T4 sequence (Q9Y256 whole entry): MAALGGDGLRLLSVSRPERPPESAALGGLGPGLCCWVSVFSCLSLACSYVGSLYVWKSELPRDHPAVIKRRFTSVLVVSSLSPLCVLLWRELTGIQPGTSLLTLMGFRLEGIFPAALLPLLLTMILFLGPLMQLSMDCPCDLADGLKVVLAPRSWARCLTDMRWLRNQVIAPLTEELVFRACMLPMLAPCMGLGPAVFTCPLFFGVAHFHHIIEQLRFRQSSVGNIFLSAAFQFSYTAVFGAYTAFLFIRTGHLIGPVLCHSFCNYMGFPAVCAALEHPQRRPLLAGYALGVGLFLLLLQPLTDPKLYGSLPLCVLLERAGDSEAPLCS

Prothrombin = Prothrombin (Homo sapiens, UniProt P00734); experiment: Thrombin 1536 HTS Dose Response Confirmation. [Related pubchem assays: 1046 (Thrombin 1536 HTS; hits were confirmed in this assay)]; format: functional
HEK293 [15] = experiment: HEK293T cell viability loss, resazurin readout – resazurin fluorescence, cytotoxicity control for NF-kB activator project, SAR follow-up (AID 493251); format: functional, cell-based; conditions: Homo sapiens
HEK293 [16] = experiment: SAR Analysis of small molecule inhibitors of T-cell specific antigen receptor-induced NF-kB activation in a HEK-293T cell line using a luminescence assay - Set 2. [Related pubchem assays (depositor defined):AID435003, AID435012, AID489026]; format: functional, cell-based; conditions: Homo sapiens
Jurkat [17] = experiment: SAR Analysis of small molecule inhibitors of T-cell specific antigen receptor-induced NF-kB activation in a Jurkat cell line using a luminescence assay - Set 2. [Related pubchem assays (depositor defined):AID435003, AID435012, AID465]; format: functional, cell-based; conditions: Homo sapiens
[18] = molecular target: T5, RNA-binding protein pos-1 (Caenorhabditis elegans, UniProt G5EF15); experiment: disruptors of C. elegans POS-1 RNA interaction – biochemical, fluorescence polarization, dose response (AID 1964);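 further: purified POS-1 fused to maltose binding protein made in E. coli; potency of compounds blocking POS-1 binding to fluorescent RNA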
T5 sequence (G5EF15 whole entry): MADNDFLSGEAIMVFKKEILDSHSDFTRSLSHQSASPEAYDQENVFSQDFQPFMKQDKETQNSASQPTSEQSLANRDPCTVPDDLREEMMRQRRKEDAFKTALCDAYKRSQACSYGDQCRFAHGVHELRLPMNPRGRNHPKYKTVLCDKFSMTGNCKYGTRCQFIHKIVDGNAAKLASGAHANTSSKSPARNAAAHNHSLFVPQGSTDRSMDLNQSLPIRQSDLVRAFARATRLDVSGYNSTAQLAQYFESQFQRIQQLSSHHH

Estrogen receptor beta [19] = molecular target: T6, Estrogen receptor beta (Homo sapiens, UniProt Q92731); experiment: blockers of SRC-3 recruitment to ERβ – biochemical, ELISA, streptavidin-HRP readout, orthogonal assay, confirmation (AID 1060)
T6 sequence (Q92731 whole entry): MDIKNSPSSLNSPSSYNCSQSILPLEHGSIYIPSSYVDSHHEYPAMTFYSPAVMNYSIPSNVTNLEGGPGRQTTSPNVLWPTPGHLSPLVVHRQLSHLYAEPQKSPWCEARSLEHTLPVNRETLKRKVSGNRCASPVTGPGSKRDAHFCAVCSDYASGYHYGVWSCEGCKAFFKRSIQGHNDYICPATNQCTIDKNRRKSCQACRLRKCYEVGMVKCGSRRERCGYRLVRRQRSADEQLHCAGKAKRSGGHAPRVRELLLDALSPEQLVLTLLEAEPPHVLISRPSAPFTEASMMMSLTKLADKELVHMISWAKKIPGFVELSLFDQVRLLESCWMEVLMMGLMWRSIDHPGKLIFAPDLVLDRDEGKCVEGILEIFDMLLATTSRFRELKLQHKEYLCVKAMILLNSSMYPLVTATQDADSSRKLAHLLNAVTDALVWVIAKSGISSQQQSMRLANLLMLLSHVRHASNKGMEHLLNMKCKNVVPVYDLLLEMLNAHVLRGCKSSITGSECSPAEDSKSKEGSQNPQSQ

[20] = molecular target: T7, Zinc finger protein mex-5 (Caenorhabditis elegans, UniProt Q9XUB2); experiment: potency of MEX-5 RNA-binding blockers – biochemical, C. elegans, fluorescence polarization, dose response (AID 1960)
T7 sequence (Q9XUB2 whole entry): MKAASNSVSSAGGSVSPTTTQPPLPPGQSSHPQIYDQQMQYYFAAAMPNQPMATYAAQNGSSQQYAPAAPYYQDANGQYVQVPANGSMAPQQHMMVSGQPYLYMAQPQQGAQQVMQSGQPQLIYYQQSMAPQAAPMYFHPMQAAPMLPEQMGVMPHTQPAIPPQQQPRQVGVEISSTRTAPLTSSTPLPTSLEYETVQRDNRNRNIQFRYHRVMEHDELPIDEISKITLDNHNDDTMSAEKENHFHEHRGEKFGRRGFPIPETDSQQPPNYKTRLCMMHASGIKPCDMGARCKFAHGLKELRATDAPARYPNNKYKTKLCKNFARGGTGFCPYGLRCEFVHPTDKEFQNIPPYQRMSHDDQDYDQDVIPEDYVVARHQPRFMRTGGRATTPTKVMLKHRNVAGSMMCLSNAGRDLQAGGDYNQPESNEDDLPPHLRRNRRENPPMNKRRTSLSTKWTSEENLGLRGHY

Estrogen receptor = molecular target: T8, Estrogen receptor (Homo sapiens, UniProt P03372);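 further: potency for inhibiting coactivator peptide recruitment to the receptor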
T8 sequence (P03372 whole entry): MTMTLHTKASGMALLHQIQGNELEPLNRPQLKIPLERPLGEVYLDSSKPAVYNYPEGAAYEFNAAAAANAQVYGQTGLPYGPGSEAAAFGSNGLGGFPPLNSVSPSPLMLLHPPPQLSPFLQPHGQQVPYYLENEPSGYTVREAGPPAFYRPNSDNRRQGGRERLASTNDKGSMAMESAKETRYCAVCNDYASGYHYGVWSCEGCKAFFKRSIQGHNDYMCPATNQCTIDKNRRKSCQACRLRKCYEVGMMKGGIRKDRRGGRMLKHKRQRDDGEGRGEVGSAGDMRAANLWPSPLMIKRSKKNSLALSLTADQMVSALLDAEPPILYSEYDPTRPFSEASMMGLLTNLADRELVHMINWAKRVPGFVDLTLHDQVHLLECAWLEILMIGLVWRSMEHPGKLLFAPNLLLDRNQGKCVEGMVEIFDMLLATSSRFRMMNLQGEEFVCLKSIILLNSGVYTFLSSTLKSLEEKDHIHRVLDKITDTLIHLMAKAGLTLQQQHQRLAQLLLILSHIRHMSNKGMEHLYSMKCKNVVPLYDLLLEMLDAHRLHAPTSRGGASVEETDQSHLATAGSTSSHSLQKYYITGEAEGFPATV

Troponin, cardiac muscle = Troponin, cardiac muscle (Homo sapiens, UniProt P19429+P45379+P63316); experiment: Fluorescence-based biochemical high throughput dose response assay for activators of the calcium sensitivity of cardiac Regulated Thin Filaments (RTF). [Related pubchem assays (depositor defined):AID493008, AID493018, AID504382, AID504383]; format: protein-complex assay
Estrogen receptor beta [21] = molecular target: T6, Estrogen receptor beta

UDP-galactopyranose mutase, sequence (P9WIQ1 whole entry): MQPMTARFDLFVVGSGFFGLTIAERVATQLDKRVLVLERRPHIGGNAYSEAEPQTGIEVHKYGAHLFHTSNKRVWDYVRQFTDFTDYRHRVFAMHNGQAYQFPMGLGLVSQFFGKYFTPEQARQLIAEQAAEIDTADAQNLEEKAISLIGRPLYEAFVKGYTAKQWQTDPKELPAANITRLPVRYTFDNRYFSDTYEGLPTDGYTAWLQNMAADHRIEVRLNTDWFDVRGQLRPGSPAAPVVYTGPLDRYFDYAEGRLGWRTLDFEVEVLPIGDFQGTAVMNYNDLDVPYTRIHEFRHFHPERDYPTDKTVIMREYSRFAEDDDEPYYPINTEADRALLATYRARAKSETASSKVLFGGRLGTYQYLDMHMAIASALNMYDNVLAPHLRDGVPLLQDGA

## CCN(CC)c1ccc2cc(S(=O)(=O)c3ccc(C)cc3)c(=O)oc2c1
[1]
  AC50: 63.4 µM (active)
ORF 73
  AC50: 18.4 µM (active)
[2]
  EC50: 0.203 µM (active)
[3]
  EC50: > 180 µM (inactive)
[4]
  EC50: 25.2 µM (active)
[5]
  EC50: 21.9 µM (active)

## COc1ccc(NS(=O)(=O)c2cccc(NC(=O)c3ccc(Cl)nc3)c2)cc1
[6]
  IC50: > 80 µM (inactive)
[7]
  IC50: 3.21 µM (active)
Jurkat [8]
  IC50: 38.2 µM (inactive)

## Cc1ccc(C(=O)Nc2cccc(C(F)(F)F)c2)cc1NC(=O)c1ccno1
[9]
  EC50: 0.333 µM (active)
[10]
  EC50: 0.285 µM (active)
[11]
  EC50: < 0.1 µM (active)
[12]
  EC50: 6.47 µM (active)
[6]
  IC50: > 80 µM (inactive)
Jurkat [8]
  IC50: > 80 µM (inactive)

## COc1ccc(C2c3c(ncn(CCCO)c3=N)Oc3ccc4ccccc4c32)cc1 (centres undefined)
CAAX prenyl protease 1
  AC50: 8.82 µM (active)
CAAX prenyl protease 2 [13]
  AC50: 5.6 µM (active)

## CCOC(=O)C1=C(C)OC(N)=C(C#N)C1c1cc2c(cc1[N+](=O)[O-])OCO2 (centres undefined)
CAAX prenyl protease 1
  AC50: 5.61 µM (active)
CAAX prenyl protease 2 [14]
  AC50: 13.2 µM (active)
Prothrombin
  IC50: 0.915 µM (active)

## CCCCC(=O)NC(c1ccc(C)cc1)c1ccc2cccnc2c1O (centres undefined)
HEK293 [15]
  IC50: 26.1 µM (inactive)
HEK293 [16]
  IC50: 2.78 µM (active)
Jurkat [17]
  IC50: 2.65 µM (active)

## CC(=O)Nc1ccc(/N=C/c2nc(-c3ccc(C)cc3)oc2O)cc1
[18]
  EC50: > 300 µM (not active)
Estrogen receptor beta [19]
  IC50: 21.6 µM (not active)
[20]
  EC50: > 300 µM (inconclusive)
Estrogen receptor
  IC50: 8.2 µM (active)
Troponin, cardiac muscle
  EC50: 11.6 µM (inactive)
Estrogen receptor beta [21]
  IC50: > 50 µM (not active)
